Results on 1 compound are retold here after patent US10799521B2, “Use of icaritin in preparing medicament for preventing or treating hematocytopenia” (Lunan Pharmaceutical Group Corporation, priority 2013, dated 2020).

Marks after values point to notes of the source that are not given here.

On the set-up of data set [1]: species or system Kunming mice. As to conditions: mouse, in vivo. As for the experimental part:
Mice ascites tumor s180 cells were conventionally incubated in 1640 culture medium, at 37° C., 5% CO2, and passaged once every two days in average. The cells in the logarithmic growth phase were prepared into a single-cell suspension having a density of 3.0×10^7 cells/ml with normal saline, which was injected into the abdominal cavities of mice under sterile conditions. Seven days after inoculation, significant swelling of the abdominal cavities of mice can be seen. As this time, the mice were executed by cervical vertebra luxation, put into a beaker containing 75% ethanol and soaked for 2-3 minutes. The sterilized mice were placed into an ultraclean bench, and the abdomens were exposed. The ascites was drawn with a sterile syringe and put into a sterile reagent bottle for further use. The above ascites was counted with trypan blue, diluted with normal saline to adjust to 2.0×10^7 cells/ml, and inoculated at the right armpit of the mice with 0.2 ml for each mouse.
The inoculated mice were randomly divided into 6 groups, with 10 animals in each group and half male and half female.
Docetaxel and icaritin were administered by tail intravenous injection with an administration volume of 10 ml/kg for each. Tegafur, Gimeracil and Oteracil Potassium Capsules was intragastrically administered with an administration volume of 40 ml/kg. Each group was administered once a day for totally 10 days. During the test, the animals were observed every day for their food and water uptake, survival conditions and behaviors, and measured for their body weights every day. After the test was ended, the mice were anaesthetized and anatomized. Blood was collected from abdominal aorta for routine blood test, and the total number of white blood cells, the total number of platelets and the total number of neutrophils were determined.

Data set [2] deals with mice receiving 4 Gy of ^60Co radiation. The data set can be described thus: Effect on the number of blood cells in mice receiving 4 Gy of ^60Co radiation. The following applies: 4 Gy ^60Co irradiated mice; ip once a day for 10 days; epimedium extract 3.5 ml/kg/d, icaritin 10 mg/kg/d. The data set is classed as in vivo, Kunming mice. The source says: Mice in each group, except for the normal group (10 mice), were radiated with 4 Gy of ^60Co by one-time systemic radiation with an absorbed dose of 4 Gy and an absorbed dose rate of 0.88 Gy/min. Blood was sampled at days 3, 7 and 10 after the radiation, respectively, from orbital vein for the whole blood cell count. The mice of which the number of white blood cells was lower than 3.0×10^9/L or the number of platelets was lower than 500×10^9/L in two consecutive whole blood cell counts were excluded, and the remaining mice were used to be tested.
The mice which met the requirements of the experiment after the radiation were randomly divided into the following model control group, epimedium extract group and icaritin group, with 10 animals in each group and half male and half female. Each group was treated or administered as follows.
Group 1, the normal group: administered by intraperitoneal injection with 0.9% normal saline in an administration volume of 10 ml/kg;
Group 2, the model control group: administered by intraperitoneal injection with 0.9% normal saline in an administration volume of 10 ml/kg; […]
Each group was administered once a day for totally 10 days. […] After the test was ended, blood was sampled from abdominal aorta for routine blood test, and the total number of white blood cells and the total number of platelets were determined.

Data set [3] has as its system chronic ITP model rats. As to the kind of experiment: Platelet count in chronic ITP model rats (anti-rat platelet serum). The data set is classed as in vivo, Wistar rats. Here is the method:
Establishment of chronic ITP model: Wistar rats were selected to establish the model by injecting rabbit anti-rat platelet serum (APS). […] 50 Rats in which the model was successfully established were selected, weighed, and randomly divided into 5 groups, i.e. the model control group, the icariin group (positive control group), and the icaritin administration groups (high-, medium- and low-dose groups), with 10 rats in each group. The groups were administered with the following therapeutic agents, respectively.
The model control group: administered by subcutaneous injection with the same volume of normal saline;
The icariin group: administered by subcutaneous injection with 2 mg/kg of icariin;
The high-dose icaritin group: administered by subcutaneous injection with 10 mg/kg of the icaritin injection of Example 11;
The medium-dose icaritin group: administered by subcutaneous injection with 5 mg/kg of the icaritin injection of Example 11;
The low-dose icaritin group: administered by subcutaneous injection with 1 mg/kg of the icaritin injection of Example 11.
At 1 h after the last administration, blood was sampled from the venous plexus by inserting a disposable 20 μl blood collection tube into the inner canthus of the […].

Data set [4] has as its system normal mice. The data set can be described thus: Bleeding time in normal mice (tail tip cut). The format is in vivo, Kunming mice. The arrangement: unit not given here. The following applies: 3 days, 1 h after last administration. As for the experimental part:
100 Kunming mice were randomly divided into 5 groups, i.e. the blank control group (normal saline group), the icariin group (positive control group), the high-dose icaritin group, the medium-dose icaritin group, and the low-dose icaritin group. Each group was administered as follows. Blank control group: administered with the same volume of normal saline by subcutaneous injection; Icariin group: administered with 2 mg/kg of icariin by injection; High-dose icaritin group: administered with the injection of icaritin of Example 1 by subcutaneous injection at a dosage of 10 mg/kg; Medium-dose icaritin group: administered with the injection of icaritin of Example 1 by subcutaneous injection at a dosage of 5 mg/kg; Low-dose icaritin group: administered with the injection of icaritin of Example 1 by subcutaneous injection at a dosage of 1 mg/kg. Measurement of the bleeding time: The normal saline group (blank control group), the icariin group (positive control group), and the icaritin administration groups (high-, medium-, and low-dose groups) were designed as follows: 50 mice were selected, weighed, and randomly divided into 5 groups, with 10 mice in each group. The animals were administered consecutively for 3 days. At 1 h after the last administration, a filter paper was rolled to form a filter paper cartridge with a diameter similar to that of the mouse body, which was closed at one end. The mouse was allowed to climb into the cartridge. Then about 3 mm of tail tip of the mouse was cut with scissors. A stopwatch was started to record the time when the bleeding started. The tail tip of the mouse was point-contacted with a filter paper gently every 15 s until there was no blood or no blood can be seen.

For `COc1ccc(-c2oc3c(CC=C(C)C)c(O)cc(O)c3c(=O)c2O)cc1` [Icaritin], the “Body weight Before Administration” value in data set [1] is reported as 21.1 ± 3.0 g. For the same compound, the Platelets in data set [2] is recorded as 596.2 ± 72.5^#$ 10^9/L. Also, in data set [2], the White blood cells is recorded as 4.225 ± 0.51^##$ 10^9/L. Further, the Platelet count in data set [3] (high dose 10 mg/kg sc (injection of Example 11)) is on record as 819.96 ± 61.8**^ΔΔ ×10^9; in data set [3] (low dose 1 mg/kg sc (injection of Example 11)) it was 680.84 ± 50.5 ×10^9; in data set [3] (medium dose 5 mg/kg sc (injection of Example 11)) it was 720.4 ± 60.3**^Δ ×10^9. The “Bleeding Time” value was 1.86 ± 0.24**^ΔΔ in data set [4] (high dose 10 mg/kg sc), 3.75 ± 0.46 in data set [4] (low dose 1 mg/kg sc) and 2.51 ± 0.35**^Δ in data set [4] (medium dose 5 mg/kg sc).
